In PMC4763312, “Comparative study of curcumin and curcumin formulated in a solid dispersion: Evaluation of their antigenotoxic effects” (Genetics and Molecular Biology, 2015):

Tests used:
Assay type in all cases: in vivo, Wistar rats
[1] = Variation in body mass and relative mass of the kidney
Description: Male Wistar albino rats, at 5-6 weeks of age and weighing approximately 160 g were obtained from the Animal Facility of the Ribeirão Preto Campus of the University of São Paulo. The animals were divided into 12 groups of six for each treatment. The experimental protocols applied in this study were approved by the Local Ethics Committee for Animal Use (CEUA) of Ribeirão Preto, Brazil, Register No.08.1.1417.53.2. […] These were administered via gavage at 72 h, 48 h, 24h or 30 min before the intraperitoneal administration of saline solution or the antitumoral agent cDDP, which was used as a damage-inducing agent. The body weights of the rats were recorded daily. At 24 h after cDDP administration (5th day), the animals were euthanized for sample collection. […] The same animals were used in genotoxicity assays (micronucleus test and comet assay) and biochemical tests (GSH and TBARS), as well as for the expression analysis of the Tp53 gene.

kidney cells [2] = assay: Alkaline comet assay, kidney cells
Description: (§1) These were administered via gavage at 72 h, 48 h, 24h or 30 min before the intraperitoneal administration of saline solution or the antitumoral agent cDDP, which was used as a damage-inducing agent. The body weights of the rats were recorded daily. At 24 h after cDDP administration (5th day), the animals were euthanized for sample collection. […] The same animals were used in genotoxicity assays (micronucleus test and comet assay) and biochemical tests (GSH and TBARS), as well as for the expression analysis of the Tp53 gene. The alkaline version of the comet assay was performed according to protocols proposed by [Singh et al. (1988)] and [Tice et al. (2000)], with minor modifications (the slides were stained with GelRed, 1:10,000, Biotium-USA). To check for possible cytotoxic effects of the treatments, cell viability was determined via the Trypan blue dye exclusion method. […] Following lysis, the slides were placed in a horizontal electrophoresis unit containing 300 mM NaOH and 1 mM EDTA (pH > 13) for 20 min at an electric field strength of 0.78 V/cm (25 V and 300 mA). The slides were neutralized and stained with Gel Red (1:10,000). A total of 100 nucleoids per animal (two slides of 50 nucleoids each) were analysed at a 400x magnification using a fluorescence microscope (Axiostar, Zeiss, Germany) equipped with a 515-560 nm excitation filter, a 590 nm barrier filter and an integrated digital camera. Tail intensity (% tail DNA) was evaluated using the Comet Assay IV software (Perceptive Instruments, Suffolk, UK).

peripheral blood cells [3] = assay: Alkaline comet assay, peripheral blood cells
Description: as §1

[4] = Cell viability by Trypan blue dye exclusion, kidney cells; conditions: male, Wistar, rat, kidney cells, oral, % in relation to saline solution group
Description: (§2) These were administered via gavage at 72 h, 48 h, 24h or 30 min before the intraperitoneal administration of saline solution or the antitumoral agent cDDP, which was used as a damage-inducing agent. The alkaline version of the comet assay was performed according to protocols proposed by [Singh et al. (1988)] and [Tice et al. (2000)], with minor modifications (the slides were stained with GelRed, 1:10,000, Biotium-USA). To check for possible cytotoxic effects of the treatments, cell viability was determined via the Trypan blue dye exclusion method. […] Following lysis, the slides were placed in a horizontal electrophoresis unit containing 300 mM NaOH and 1 mM EDTA (pH > 13) for 20 min at an electric field strength of 0.78 V/cm (25 V and 300 mA). The slides were neutralized and stained with Gel Red (1:10,000). A total of 100 nucleoids per animal (two slides of 50 nucleoids each) were analysed at a 400x magnification using a fluorescence microscope (Axiostar, Zeiss, Germany) equipped with a 515-560 nm excitation filter, a 590 nm barrier filter and an integrated digital camera. Tail intensity (% tail DNA) was evaluated using the Comet Assay IV software (Perceptive Instruments, Suffolk, UK).

[5] = Cell viability by Trypan blue dye exclusion, peripheral blood cells; conditions: male, Wistar, rat, peripheral blood cells, oral, % in relation to saline solution group
Description: as §2

bone marrow erythrocytes = assay: Micronucleus test in bone marrow
Description: These were administered via gavage at 72 h, 48 h, 24h or 30 min before the intraperitoneal administration of saline solution or the antitumoral agent cDDP, which was used as a damage-inducing agent. The body weights of the rats were recorded daily. At 24 h after cDDP administration (5th day), the animals were euthanized for sample collection. […] The same animals were used in genotoxicity assays (micronucleus test and comet assay) and biochemical tests (GSH and TBARS), as well as for the expression analysis of the Tp53 gene. The micronucleus test was performed according to the protocol described by [Schmid (1975)]. Bone marrow cells were harvested from rat femurs, mixed with fetal bovine serum, homogenized and centrifuged, and the pellet was resuspended for slide preparations. The slides were then fixed, stained with Giemsa solution and coded. Three slides were produced for each animal. Coded slides were scored under 1000X magnification using a light microscope (Zeiss).

[6] = test system: reduced glutathione (GSH) in kidney tissue; assay: GSH level in the kidney; conditions: for GSH: kidney
Description: These were administered via gavage at 72 h, 48 h, 24h or 30 min before the intraperitoneal administration of saline solution or the antitumoral agent cDDP, which was used as a damage-inducing agent. The body weights of the rats were recorded daily. At 24 h after cDDP administration (5th day), the animals were euthanized for sample collection. […] The same animals were used in genotoxicity assays (micronucleus test and comet assay) and biochemical tests (GSH and TBARS), as well as for the expression analysis of the Tp53 gene. GSH concentrations in kidney tissue were determined according to method described by [Sedlak and Lindsay (1968)]. […] A 2.0 mL volume of Tris-EDTA buffer (0.2 M, pH 8.9) and 0.1 mL of 5,5 ‘-dithio-bis-2-nitrobenzoic acid (DTNB) in 0.01 M methanol were added to a 0.5 mL aliquot of the supernatant. The samples were maintained at room temperature for 15 min and then read at 412 nm (RayLeigh UV-1601 spectrophotometer). Standard curves were prepared using α-cysteine, and results were expressed as nmol GSH/g protein. The quantification of total proteins was done at 650 nm (RayLeigh UV-1601 spectrophotometer) using Lowry’s method ([Hartree, 1972]).

[7] = test system: thiobarbituric-acid-reactive substances (TBARS) in kidney tissue; assay: TBARS level in the kidney; conditions: for TBARS: kidney
Description: These were administered via gavage at 72 h, 48 h, 24h or 30 min before the intraperitoneal administration of saline solution or the antitumoral agent cDDP, which was used as a damage-inducing agent. The body weights of the rats were recorded daily. At 24 h after cDDP administration (5th day), the animals were euthanized for sample collection. […] The same animals were used in genotoxicity assays (micronucleus test and comet assay) and biochemical tests (GSH and TBARS), as well as for the expression analysis of the Tp53 gene. TBARS measurements in kidney tissue were performed according to [Buege and Aust (1978)]. A 0.5 mL aliquot of the homogenate was added to 1 mL of thiobarbituric acid solution (containing 15% trichloroacetic acid and 0.25 M HCl) to a final concentration of […]. This mixture was warmed in a water bath for 15 min and centrifuged for 20 min at 180 x g. The absorbance of the supernatant was determined at 535 nm (UV-VisB582 Micronal spectrophotometer), and the results were expressed as nmol TBARS/mg protein. […] The quantification of total proteins was done at 650 nm (RayLeigh UV-1601 spectrophotometer) using Lowry’s method ([Hartree, 1972]).

Tp53 mRNA = assay: Quantification of Tp53 mRNA in kidney tissue (RT-qPCR); conditions: 50 mg/kg b.w. together with cDDP 6 mg/kg b.w.
Description: These were administered via gavage at 72 h, 48 h, 24h or 30 min before the intraperitoneal administration of saline solution or the antitumoral agent cDDP, which was used as a damage-inducing agent. Total RNA was extracted from kidney tissue using the SV Total Isolation System kit (Promega, Madison, WI, USA), according the manufacturer's instructions. […] The extracted RNA was converted to cDNA using the SuperScriptTM III kit (Invitrogen, Carlsbad, CA, USA), and RT-qPCR was performed in a CFX96 Real-Time PCR Detection System (Bio-Rad, CA, USA) using the Bio-Rad Real-Time PCR system with ABsoluteTM QPCR SYBR1 Green Mix (Invitrogen, Carlsbad, CA, USA), where fluorescence detection was performed following each annealing/extension cycle. The following reference genes were tested for suitability: b-actin (b-actin-forward: […] reverse: […] (GAPDH-forward: […]-reverse: [NT] and […]-forward: […]-reverse [NT] Based on stability, we selected b-actin as the endogenous control gene for RT-qPCR. Gene-specific primers for Tp53 (Tp53-forward: [NT]; Tp53-reverse: […] Louis, MO, USA). RT-qPCR efficiencies for Tp53 and b-actin were satisfactory, and the relative expression of Tp53 mRNA was normalized to the amount of b-actin using the method of relative 2^-ΔΔCt quantification described by [Livak and Schmittgen (2001)].

kidney cells [8] = assay: Cell viability by Trypan blue dye exclusion, kidney cells; conditions: % in relation to saline solution group; GLA gavage + cDDP 6 mg/kg b.w. i.p.
Description: as §2

peripheral blood cells [9] = assay: Cell viability by Trypan blue dye exclusion, peripheral blood cells; conditions: % in relation to saline solution group; GLA gavage + cDDP 6 mg/kg b.w. i.p.
Description: as §2

[10] = 50 mg/kg b.w. gavage x4 + cDDP 6 mg/kg b.w. i.p.
[11] = 50 mg/kg b.w. gavage x4 + i.p. saline
[12] = 50 mg/kg b.w. gavage x4 + cDDP 6 mg/kg b.w. i.p., 24 h
[13] = GLA gavage + cDDP 6 mg/kg b.w. i.p.
[14] = GLA gavage + cDDP 6 mg/kg b.w. i.p., 24 h

Compound: COc1cc(C=CC(=O)CC(=O)C=Cc2ccc(O)c(OC)c2)ccc1O [CMN, 1,7-bis[4-hydroxy 3-methoxyphenyl]-1,6-heptadiene-3,5-dione]
- Body weight variation, interval 2 (day 4 to 5) [1, 10]: 0.1 ± 2.5 g
- Kidney/body weight [1, 10]: 0.90 ± 0.06%
- Body weight variation, interval 1 (days 1 to 4) ([1]; 50 mg/kg b.w. gavage x4 + cDDP 6 mg/kg b.w. i.p. group): 31.8 ± 4.7 g
- Body weight variation, interval 1 (days 1 to 4) [1, 11]: 31.7 ± 6.6 g
- Body weight variation, interval 2 (day 4 to 5) [1, 11]: 8.2 ± 2.4 g
- Kidney/body weight [1, 11]: 0.96 ± 0.05%
- Reduction of body weight gain triggered by cDDP (in words) ([1]; combined application with cDDP): did not alter the reduction of body weight gain
- % tail DNA, kidney (kidney cells [2]; [10]): 4.0 ± 0.8%
- % tail DNA, kidney (kidney cells [2]; [11]): 5.5 ± 2.8%
- Comet assay, in association with cDDP compared to cDDP-only group (in words) (kidney cells [2]; with cDDP 6 mg/kg b.w.): did not induce significant alterations
- % tail DNA, peripheral blood (peripheral blood cells [3]; [10]): 2.1 ± 0.6%
- % tail DNA, peripheral blood (peripheral blood cells [3]; [11]): 3.2 ± 0.9%
- viability at 24 h [4, 10]: 88.5 ± 2.2%
- viability at 24 h [4, 11]: 89 ± 2.3%
- viability at 24 h [5, 10]: 99.2 ± 0.7%
- viability at 24 h [5, 11]: 98.7 ± 0.5%
- Frequency of micronucleated polychromatic erythrocytes, MNPCEs/1000 PCEs (bone marrow erythrocytes; [10]): 7.08 ± 3.04 ^# MNPCEs/1000 PCEs
- Frequency of micronucleated polychromatic erythrocytes, MNPCEs/1000 PCEs (bone marrow erythrocytes; [11]): 1.91 ± 1.27 MNPCEs/1000 PCEs
- Formation of cDDP-induced micronuclei (in words) (bone marrow erythrocytes; CMN SD 5, 25 and 50 mg/kg b.w., unmodified CMN 50 mg/kg b.w., p < 0.05): significantly reduced
- GSH concentration in renal tissue (in words) ([6]; administered alone): did not alter
- GSH [6, 12]: 17.0 ± 1.4 nmol/mg protein
- GSH [6, 11]: 14.4 ± 1.2 nmol/mg protein
- TBARS concentration in renal tissue (in words) ([7]; administered alone): did not alter
- TBARS [7, 12]: 0.222 ± 0.064 nmol/mg protein
- TBARS [7, 11]: 0.236 ± 0.018 nmol/mg protein
- TBARS levels, administered together with cDDP (in words) ([7]; with cDDP 6 mg/kg b.w., p > 0.05 vs saline solution group): able to maintain the TBARS levels observed in the saline solution group
- Tp53 expression compared to saline solution group (Tp53 mRNA): up-regulated

Compound: [NH2][Pt]([NH2])([Cl])[Cl] [cDDP, Cisplatin]
- Body weight variation, interval 2 (day 4 to 5) [1, 13]: 0.8 ± 2.2 g
- Kidney/body weight [1, 13]: 1.02 ± 0.11%
- Body weight variation, interval 1 (days 1 to 4) ([1]; GLA gavage + cDDP 6 mg/kg b.w. i.p. group): 27.5 ± 6.1 g
- % tail DNA, kidney (kidney cells [2]; [13]): 3.8 ± 0.7 %
- % tail DNA, peripheral blood (peripheral blood cells [3]; [13]): 2.2 ± 0.8%
- Cell viability, kidney (kidney cells [8]): 86.5 ± 3.1%
- Cell viability, peripheral blood (peripheral blood cells [9]): 98.8 ± 0.7%
- Frequency of micronucleated polychromatic erythrocytes, MNPCEs/1000 PCEs (bone marrow erythrocytes; [13]): 12.75 ± 3.32 MNPCEs/1000 PCEs
- PCE/(PCE + NCE) ratio (bone marrow erythrocytes; in 500 erythrocytes, GLA gavage + cDDP 6 mg/kg b.w. i.p.): 44.8 ± 4.9%
- GSH [6, 14]: 18.5 ± 0.6 nmol/mg protein
- TBARS [7, 14]: 0.286 ± 0.014 nmol/mg protein
